From patent publication US9938279B2, “Method for treating disease or condition susceptible to amelioration by AMPK activators and compounds of formula which are useful to activate AMP-activated protein kinase (AMPK)” (ENERGENESIS BIOMEDICAL CO., LTD, priority 2013, dated 2018)

How the values were obtained:
AMPK [1] = test: AMPK activation assay (western blot phospho-AMPK Thr172) in C2C12; assay type: cell-based, mouse; conditions: C2C12 cells, 30 min treatment
Procedure: (§1) Effects of compounds on AMPK activation were analyzed in mouse muscle cell C2C12, mouse fibroblast 3T3-L1 and human hepatocyte Hep G2. Those cell lines were cultured in high-glucose Dulbecco's modified Eagle's medium (DMEM) containing 10% fetal bovine serum (FBS), 4 mM L-glutamine, 2 mM sodium pyruvate and 1% penicillin/streptomycin (Invitrogen GibcoBRL, Carlsbad, Calif., USA) at 37° C. under 5% CO2. Cells were plated at 3×10^5 per well (6-well plate). 24 h after plating, cells were treated with indicated compounds for 30 min followed by cell lysis and western blot analysis. Equal amount of protein were separated by SDS-PAGE and then electroblotted on to PVDF membranes. Membranes were blocked with 3% BSA in PBS for 60 min and incubated with anti-phospho-AMPK (Thr172) antibody (1:2,000, Cell signaling), anti-AMPK antibody (1:2,000, Cell signaling), anti-Glut4 antibody (1:1,000, Millipore) or anti-actin antibody (1:5,000; Chemicon International) at 4° C. overnight followed by the corresponding secondary antibody for 1 h at room temperature (RT). Immunoreactive bands were detected by enhanced chemiluminescence (ECL; Pierce, Rockford, Ill., USA) and recorded using Kodakfilm (Rochester, N.Y., USA). The detected signals were scanned and then quantified by using TotalLab Quant software (TotalLab).

AMPK [2] = test: AMPK activation assay (western blot phospho-AMPK Thr172) in 3T3-L1; assay type: cell-based, mouse; conditions: 3T3-L1 cells, 30 min treatment
Procedure: as §1

AMPK [3] = test: AMPK activation assay (western blot phospho-AMPK Thr172) in Hep G2; assay type: cell-based, human; conditions: Hep G2 cells, 30 min treatment
Procedure: as §1

| SMILES | AMPK activation (% to control) C2C12 (AMPK [1]; 1 microM) | AMPK activation (% to control) C2C12 (AMPK [1]; 10 microM) | AMPK activation (% to control) C2C12 (AMPK [1]; 100 microM) | AMPK activation (% to control) C2C12 (AMPK [1]; 200 microM) | AMPK activation (% to control) 3T3-L1 (AMPK [2]; 1 microM) | AMPK activation (% to control) 3T3-L1 (AMPK [2]; 10 microM) | AMPK activation (% to control) 3T3-L1 (AMPK [2]; 100 microM) | AMPK activation (% to control) 3T3-L1 (AMPK [2]; 200 microM) | AMPK activation (% to control) Hep G2 (AMPK [3]; 1 microM) | AMPK activation (% to control) Hep G2 (AMPK [3]; 10 microM) | AMPK activation (% to control) Hep G2 (AMPK [3]; 100 microM) | AMPK activation (% to control) Hep G2 (AMPK [3]; 200 microM) |
| --- | --- | --- | --- | --- | --- | --- | --- | --- | --- | --- | --- | --- |
| Oc1nc(S)c2[nH]cnc2n1 [Example 2-hydroxy-6-mercaptopurine, 2-hydroxy-6-mercaptopurine] | 104 % to control | 109 % to control | 198 % to control | 251 % to control | 118 % to control | 122 % to control | 210 % to control | 277 % to control | 105 % to control | 108 % to control | 204 % to control | 222 % to control |
| CNc1nc(O)nc2nc[nH]c12 [Example 2-hydroxy-6-methylaminopurine, 2-hydroxy-6-methylaminopurine] | 118 % to control | 151 % to control | 255 % to control | 361 % to control | 113 % to control | 162 % to control | 271 % to control | 382 % to control | 115 % to control | 148 % to control | 266 % to control | 354 % to control |
| CCCNc1nc(O)nc2nc[nH]c12 [Example 2-hydroxy-6-propylaminopurine, 2-hydroxy-6-propylaminopurine] | 114 % to control | 122 % to control | 201 % to control | 324 % to control | 109 % to control | 129 % to control | 233 % to control | 361 % to control | 110 % to control | 133 % to control | 270 % to control | 339 % to control |
| Nc1nc(O)nc2nc[nH]c12 [Example 2-hydroxyadenine, 2-hydroxyadenine] | 111 % to control | 166 % to control | 275 % to control | 315 % to control | 117 % to control | 171 % to control | 264 % to control | 351 % to control | 118 % to control | 143 % to control | 220 % to control | 338 % to control |
| Nc1nc(I)nc2nc[nH]c12 [Example 2-iodoadenine, 2-iodoadenine] | 114 % to control | 143 % to control | 214 % to control | 311 % to control | 116 % to control | 179 % to control | 237 % to control | 358 % to control | 115 % to control | 151 % to control | 227 % to control | 341 % to control |
| Oc1nc(S)nc2nc[nH]c12 [Example 2-mercapto-6-hydroxypurine, 2-mercapto-6-hydroxypurine] | 109 % to control | 148 % to control | 251 % to control | 333 % to control | 115 % to control | 147 % to control | 220 % to control | 308 % to control | 113 % to control | 132 % to control | 209 % to control | 315 % to control |
| Nc1nc(S)nc2nc[nH]c12 [Example 2-mercaptoadenine, 2-mercaptoadenine] | 105 % to control | 115 % to control | 221 % to control | 289 % to control | 112 % to control | 128 % to control | 204 % to control | 297 % to control | 118 % to control | 119 % to control | 195 % to control | 308 % to control |
| Cc1nc(O)c2[nH]cnc2n1 [Example 2-methyl-6-hydroxypurine, 2-methyl-6-hydroxypurine] | 109 % to control | 139 % to control | 241 % to control | 305 % to control | 112 % to control | 144 % to control | 228 % to control | 338 % to control | 116 % to control | 162 % to control | 219 % to control | 347 % to control |
| O=c1[nH]cc(F)c(=O)[nH]1 [Example 5-fluorouracil, 5-fluorouracil] | 105 % to control | 105 % to control | 224 % to control | 318 % to control | 108 % to control | 113 % to control | 248 % to control | 322 % to control | 110 % to control | 134 % to control | 237 % to control | 319 % to control |
| Cc1c[nH]c(=O)nc1N [Example 5-methylcytosine, 5-methylcytosine] | 116 % to control | 157 % to control | 241 % to control | 338 % to control | 115 % to control | 161 % to control | 253 % to control | 356 % to control | 107 % to control | 114 % to control | 218 % to control | 317 % to control |
